# From the supplement of paper PMC10307832
# Assays:
# Assay in all cases: relative viability (nuclei count vs DMSO), 5 days (fraction); higher = more cells survive
# NCI-H1792 = tested on: NCI-H1792
# Procedure, shortened: (§1)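 Dosing by pin tool came one day after lung cancer cell lines were seeded in 1536-well plates, using either one drug or a fixed anchor-drug dose plus five library-drug doses (not always all listed) in √10 steps. After 5 days, nuclei were counted on 4× images. Relative viability is treated-well nuclei count divided by vehicle-well nuclei count, and values are medians of duplicate plates.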
# H3255 = tested on: H3255
# Procedure, shortened: as §1
# LC-2-ad = tested on: LC-2-ad
# Procedure, shortened: as §1
# NCI-H2126 = tested on: NCI-H2126
# Procedure, shortened: as §1
# NCI-H441 = tested on: NCI-H441
# Procedure, shortened: as §1
# SK-LU-1 = tested on: SK-LU-1
# Procedure, shortened: as §1
# NCI-H460 = tested on: NCI-H460
# Procedure, shortened: as §1
# NCI-H1793 = tested on: NCI-H1793
# Procedure, shortened: as §1
# EKVX = tested on: EKVX
# Procedure, shortened: as §1
# EMC-BAC-2 = tested on: EMC-BAC-2
# Procedure, shortened: as §1
# PC-3 [JPC-3] = tested on: PC-3 [JPC-3]
# Procedure, shortened: as §1
# HARA = tested on: HARA
# Procedure, shortened: as §1
# NCI-H1915 = tested on: NCI-H1915
# Procedure, shortened: as §1
# NCI-H1437 = tested on: NCI-H1437
# Procedure, shortened: as §1
# HCC-15 = tested on: HCC-15
# Procedure, shortened: as §1
# LU99A = tested on: LU99A
# Procedure, shortened: as §1
# LCLC-97TM1 = tested on: LCLC-97TM1
# Procedure, shortened: as §1
# NCI-H322M = tested on: NCI-H322M
# Procedure, shortened: as §1
# NCI-H1944 = tested on: NCI-H1944
# Procedure, shortened: as §1
# NCI-H661 = tested on: NCI-H661
# Procedure, shortened: as §1
# NCI-H23 = tested on: NCI-H23
# Procedure, shortened: as §1
# ChaGo-K-1 = tested on: ChaGo-K-1
# Procedure, shortened: as §1
# HCC-827 = tested on: HCC-827
# Procedure, shortened: as §1
compound,measurement,setting,value
O=C(O)CCCCC(CCSCc1ccccc1)SCc1ccccc1 (stereo not drawn) [CPI-613] + O=C(c1cc(Cc2n[nH]c(=O)c3ccccc23)ccc1F)N1CCN(C(=O)C2CC2)CC1 [Olaparib] (partner 8 µM),relative viability,NCI-H1792; first compound 5 µM,0.391
same,relative viability,NCI-H1792; first compound 15.81 µM,0.358
same,relative viability,NCI-H1792; first compound 50 µM,0.328
same,relative viability,NCI-H1792; first compound 158.11 µM,0.0603
same,relative viability,NCI-H1792; first compound 500 µM,0.087
same,relative viability,H3255; first compound 5 µM,0.539
same,relative viability,H3255; first compound 15.81 µM,0.587
same,relative viability,H3255; first compound 50 µM,0.557
same,relative viability,H3255; first compound 158.11 µM,0.527
same,relative viability,H3255; first compound 500 µM,0.517
same,relative viability,LC-2-ad; first compound 5 µM,0.629
same,relative viability,LC-2-ad; first compound 15.81 µM,0.634
same,relative viability,LC-2-ad; first compound 50 µM,0.653
same,relative viability,LC-2-ad; first compound 158.11 µM,0.214
same,relative viability,LC-2-ad; first compound 500 µM,0.0817
same,relative viability,NCI-H2126; first compound 5 µM,0.904
same,relative viability,NCI-H2126; first compound 15.81 µM,1.07
same,relative viability,NCI-H2126; first compound 50 µM,0.845
same,relative viability,NCI-H2126; first compound 158.11 µM,0.757
same,relative viability,NCI-H2126; first compound 500 µM,0.128
same,relative viability,NCI-H441; first compound 5 µM,0.456
same,relative viability,NCI-H441; first compound 15.81 µM,0.483
same,relative viability,NCI-H441; first compound 50 µM,0.596
same,relative viability,NCI-H441; first compound 158.11 µM,0.109
same,relative viability,NCI-H441; first compound 500 µM,0.0239
same,relative viability,SK-LU-1; first compound 5 µM,0.416
same,relative viability,SK-LU-1; first compound 15.81 µM,0.392
same,relative viability,SK-LU-1; first compound 50 µM,0.427
same,relative viability,SK-LU-1; first compound 158.11 µM,0.352
same,relative viability,SK-LU-1; first compound 500 µM,0.238
same,relative viability,NCI-H460; first compound 5 µM,0.37
same,relative viability,NCI-H460; first compound 15.81 µM,0.321
same,relative viability,NCI-H460; first compound 50 µM,0.373
same,relative viability,NCI-H460; first compound 158.11 µM,0.274
same,relative viability,NCI-H460; first compound 500 µM,0.361
same,relative viability,NCI-H1793; first compound 5 µM,0.75
same,relative viability,NCI-H1793; first compound 15.81 µM,0.789
same,relative viability,NCI-H1793; first compound 50 µM,0.856
same,relative viability,NCI-H1793; first compound 158.11 µM,0.146
same,relative viability,NCI-H1793; first compound 500 µM,0.0648
same,relative viability,EKVX; first compound 5 µM,0.756
same,relative viability,EKVX; first compound 15.81 µM,0.862
same,relative viability,EKVX; first compound 50 µM,0.856
same,relative viability,EKVX; first compound 500 µM,0.802
same,relative viability,EMC-BAC-2; first compound 5 µM,0.508
same,relative viability,EMC-BAC-2; first compound 15.81 µM,0.432
same,relative viability,EMC-BAC-2; first compound 50 µM,0.484
same,relative viability,EMC-BAC-2; first compound 158.11 µM,0.199
same,relative viability,EMC-BAC-2; first compound 500 µM,0.229
same,relative viability,PC-3 [JPC-3]; first compound 5 µM,1.11
same,relative viability,PC-3 [JPC-3]; first compound 50 µM,0.953
same,relative viability,PC-3 [JPC-3]; first compound 158.11 µM,0.32
same,relative viability,PC-3 [JPC-3]; first compound 500 µM,0.1
same,relative viability,HARA; first compound 5 µM,0.509
same,relative viability,HARA; first compound 15.81 µM,0.813
same,relative viability,HARA; first compound 50 µM,0.772
same,relative viability,HARA; first compound 158.11 µM,0.25
same,relative viability,HARA; first compound 500 µM,0.0476
same,relative viability,NCI-H1915; first compound 5 µM,0.25
same,relative viability,NCI-H1915; first compound 15.81 µM,0.258
same,relative viability,NCI-H1915; first compound 50 µM,0.265
same,relative viability,NCI-H1915; first compound 158.11 µM,0.124
same,relative viability,NCI-H1915; first compound 500 µM,0.0608
same,relative viability,NCI-H1437; first compound 5 µM,0.599
same,relative viability,NCI-H1437; first compound 15.81 µM,0.595
same,relative viability,NCI-H1437; first compound 50 µM,0.508
same,relative viability,NCI-H1437; first compound 158.11 µM,0.112
same,relative viability,NCI-H1437; first compound 500 µM,0.0622
same,relative viability,HCC-15; first compound 5 µM,0.743
same,relative viability,HCC-15; first compound 15.81 µM,0.712
same,relative viability,HCC-15; first compound 50 µM,0.612
same,relative viability,HCC-15; first compound 158.11 µM,0.178
same,relative viability,HCC-15; first compound 500 µM,0.0853
same,relative viability,LU99A; first compound 5 µM,0.26
same,relative viability,LU99A; first compound 15.81 µM,0.237
same,relative viability,LU99A; first compound 50 µM,0.242
same,relative viability,LU99A; first compound 158.11 µM,0.127
same,relative viability,LU99A; first compound 500 µM,0.161
same,relative viability,LCLC-97TM1; first compound 5 µM,0.322
same,relative viability,LCLC-97TM1; first compound 15.81 µM,0.287
same,relative viability,LCLC-97TM1; first compound 50 µM,0.372
same,relative viability,LCLC-97TM1; first compound 158.11 µM,0.183
same,relative viability,LCLC-97TM1; first compound 500 µM,0.191
same,relative viability,NCI-H322M; first compound 5 µM,0.74
same,relative viability,NCI-H322M; first compound 15.81 µM,0.769
same,relative viability,NCI-H322M; first compound 50 µM,0.761
same,relative viability,NCI-H322M; first compound 158.11 µM,0.594
same,relative viability,NCI-H322M; first compound 500 µM,0.106
same,relative viability,NCI-H1944; first compound 5 µM,0.404
same,relative viability,NCI-H1944; first compound 15.81 µM,0.401
same,relative viability,NCI-H1944; first compound 50 µM,0.491
same,relative viability,NCI-H1944; first compound 158.11 µM,0.288
same,relative viability,NCI-H1944; first compound 500 µM,0.383
same,relative viability,NCI-H661; first compound 5 µM,0.714
same,relative viability,NCI-H661; first compound 15.81 µM,0.726
same,relative viability,NCI-H661; first compound 50 µM,0.718
same,relative viability,NCI-H661; first compound 158.11 µM,0.399
same,relative viability,NCI-H661; first compound 500 µM,0.153
same,relative viability,NCI-H23; first compound 5 µM,0.33
same,relative viability,NCI-H23; first compound 15.81 µM,0.28
same,relative viability,NCI-H23; first compound 50 µM,0.282
same,relative viability,NCI-H23; first compound 158.11 µM,0.0911
same,relative viability,NCI-H23; first compound 500 µM,0.0098
same,relative viability,ChaGo-K-1; first compound 5 µM,0.4
same,relative viability,ChaGo-K-1; first compound 15.81 µM,0.411
same,relative viability,ChaGo-K-1; first compound 50 µM,0.412
same,relative viability,ChaGo-K-1; first compound 158.11 µM,0.319
same,relative viability,ChaGo-K-1; first compound 500 µM,0.251
same,relative viability,HCC-827; first compound 5 µM,0.558
same,relative viability,HCC-827; first compound 15.81 µM,0.602
same,relative viability,HCC-827; first compound 50 µM,0.691
same,relative viability,HCC-827; first compound 158.11 µM,0.691
same,relative viability,HCC-827; first compound 500 µM,0.538
